Legend:
[1] = Partition coefficient in n-octanol/ water system at pH= 7.0; format: physicochemical
Ovis aries [2] = test: Anthelmintic activity against Haemonchus contortus nematode in sheep was determined as a function of 75 to >/= 90% egg reduction after p.o. administration; format: functional
Ovis aries [3] = test: Anthelmintic activity against Haemonchus contortus nematode in sheep was determined as a function of 50-75% egg reduction after p.o. administration; format: functional
Ovis aries [4] = test: Anthelmintic activity against Haemonchus contortus nematode in sheep was determined as a function of </= 50% egg reduction after i.v. administration; format: functional
Ovis aries [5] = test: Anthelmintic activity against Haemonchus contortus nematode in sheep was determined as a function of </=50% egg reduction after p.o. administration; format: functional
Ovis aries [6] = test: Anthelmintic activity against Haemonchus contortus nematode in sheep was determined as a function of >/= 90% egg reduction after i.v. administration; format: functional
Ovis aries [7] = test: Anthelmintic activity against Haemonchus contortus nematode in sheep was determined as a function of 75-90% egg reduction after p.o. administration; format: functional
Ovis aries [8] = test: Anthelmintic activity against Haemonchus contortus nematode in sheep was determined as a function of >/= 90% egg reduction after p.o. administration; format: functional

Compound	logD [1]	Activity (Ovis aries [4])	Activity (Ovis aries [6])	other results
C[C@@H]1OC(=O)[C@H](C)N(C)C(=O)[C@@H](Cc2ccccc2)OC(=O)[C@H](C)N(C)C(=O)[C@@H](C)OC(=O)[C@H](C)N(C)C(=O)[C@@H](Cc2ccccc2)OC(=O)[C@H](C)N(C)C1=O	3.1	0.5		
CCC(C)[C@H]1C(=O)O[C@H](Cc2ccccc2)C(=O)N(C)[C@@H](C(C)CC)C(=O)O[C@H](C)C(=O)N(C)[C@@H](C(C)CC)C(=O)O[C@H](Cc2ccccc2)C(=O)N(C)[C@@H](C(C)CC)C(=O)O[C@@H](C)C(=O)N1C (stereo partly specified)	6.6		1	Activity (Ovis aries [5]): 5
CC(C)[C@H]1C(=O)O[C@H](Cc2ccccc2)C(=O)N(C)[C@@H](C(C)C)C(=O)O[C@H](C)C(=O)N(C)[C@@H](C(C)C)C(=O)O[C@H](Cc2ccccc2)C(=O)N(C)[C@@H](C(C)C)C(=O)O[C@@H](C)C(=O)N1C	5.5		1	Activity (Ovis aries [3]): 0.25
CC(C)C[C@H]1C(=O)O[C@H](Cc2ccccc2)C(=O)N(C)[C@@H](C)C(=O)O[C@@H](C)C(=O)N(C)[C@@H](C)C(=O)O[C@H](Cc2ccccc2)C(=O)N(C)[C@@H](CC(C)C)C(=O)O[C@H](C)C(=O)N1C	4.6	0.5		
C[C@@H]1OC(=O)[C@H](Cc2ccccc2)N(C)C(=O)[C@@H](Cc2ccccc2)OC(=O)[C@H](Cc2ccccc2)N(C)C(=O)[C@@H](C)OC(=O)[C@H](Cc2ccccc2)N(C)C(=O)[C@@H](Cc2ccccc2)OC(=O)[C@H](Cc2ccccc2)N(C)C1=O	5.9	5		
CCC[C@H]1C(=O)O[C@H](Cc2ccccc2)C(=O)N(C)[C@@H](CCC)C(=O)O[C@H](C)C(=O)N(C)[C@@H](CCC)C(=O)O[C@H](Cc2ccccc2)C(=O)N(C)[C@@H](CCC)C(=O)O[C@@H](C)C(=O)N1C	5.1	0.5		
CC(C)C[C@H]1C(=O)O[C@H](Cc2ccccc2)C(=O)N(C)[C@@H](CC(C)C)C(=O)O[C@H](C)C(=O)N(C)[C@@H](CC(C)C)C(=O)O[C@H](Cc2ccccc2)C(=O)N(C)[C@@H](CC(C)C)C(=O)OC(C)C(=O)N1C (single isomer, unassigned)	5.9		0.1	Activity (Ovis aries [8]): 0.1

Further lines, with some results ahead:

logD [1]	Compound	Activity (Ovis aries [4])	Activity (Ovis aries [6])	other results
7.2	CCN1C(=O)[C@H](C)OC(=O)[C@H](CC(C)C)N(CC)C(=O)[C@@H](Cc2ccccc2)OC(=O)[C@H](CC(C)C)N(CC)C(=O)[C@@H](C)OC(=O)[C@H](CC(C)C)N(CC)C(=O)[C@@H](Cc2ccccc2)OC(=O)[C@@H]1CC(C)C			Activity (Ovis aries [2]): 0.25
8.4	CCCN1C(=O)[C@H](C)OC(=O)[C@H](CC(C)C)N(CCC)C(=O)[C@@H](Cc2ccccc2)OC(=O)[C@H](CC(C)C)N(CCC)C(=O)[C@@H](C)OC(=O)[C@H](CC(C)C)N(CCC)C(=O)[C@@H](Cc2ccccc2)OC(=O)[C@@H]1CC(C)C			Activity (Ovis aries [3]): 0.25
8.6	CC(C)C[C@H]1C(=O)O[C@H](Cc2ccccc2)C(=O)N(C(C)C)[C@@H](CC(C)C)C(=O)O[C@H](C)C(=O)N(C(C)C)[C@@H](CC(C)C)C(=O)O[C@H](Cc2ccccc2)C(=O)N(C(C)C)[C@@H](CC(C)C)C(=O)O[C@@H](C)C(=O)N1C(C)C			Activity (Ovis aries [7]): 1
5.5	CCC[C@H]1C(=O)O[C@H](Cc2ccccc2)C(=O)N(C)[C@@H](CC(C)C)C(=O)O[C@H](C)C(=O)N(C)[C@@H](CC(C)C)C(=O)O[C@H](Cc2ccccc2)C(=O)N(C)[C@@H](CCC)C(=O)O[C@@H](C)C(=O)N1C		0.5	Activity (Ovis aries [5]): 0.1

From ChEMBL document CHEMBL1130801, “PF1022A--a novel anthelmintic cyclooctadepsipeptide. Modification and exchange of the N-methyl leucine residues” (Bioorg Med Chem Lett, 1998)
